Reference: the supplement of paper PMC6045584
± gives the standard deviation of the averaged measurements.

Key:
CARBOPLATIN [1] = compound: T1, O=C(O)C1(C(=O)O)CCC1.[NH2-].[NH2-].[Pt+2] [CARBOPLATIN]; test: surviving fraction relative to DMSO-only wells; higher = less growth inhibition; details: exposure time: 5 days
Outline: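 After seeding at 250–500 cells per well in 384-well plates and a 24-hour wait, log-phase tumour cell lines were exposed without interruption for five days to inhibitors at 0.5, 1, 5, 10, 50, 100, 500 and 1000 nM. CellTiter-Glo luminescence was recorded after 10 minutes at room temperature. Viability is reported as surviving fraction, the luminescence normalised to the median of DMSO-only wells.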

[2] = compound: CC(=O)c1c(C)c2cnc(Nc3ccc(N4CCNCC4)cn3)nc2n(C2CCCC2)c1=O; test: area under dose-response curve of surviving fraction (unscaled, Aref=0) (surviving fraction x log10(nM)); higher = more resistant; details: exposure time: 5 days; dose range 0.5-1000 nM
Outline: (§1)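 Three screens per tumour cell line were run in 384-well plates at eight inhibitor concentrations from 0.5 to 1000 nM over five days. Surviving fractions, from CellTiter-Glo luminescence normalised to DMSO-only wells, were fitted with 3-parameter logistic curves in the drc R package. The reported area under the curve is the unscaled activity area. It spans log10 dose, and Aref is 0.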

[3] = compound: CC(=O)NCC(=O)N1[C@@H]2CC[C@H]1c1ccc(Nc3ncc(C(F)(F)F)c(NC4CCC4)n3)cc12; test: as above; details: exposure time: 5 days; dose range 0.5-1000 nM
Outline: as §1

PACLITAXEL = compound: CC(=O)O[C@H]1C(=O)[C@@]2(C)[C@H]([C@H](OC(=O)c3ccccc3)[C@]3(O)C[C@H](OC(=O)[C@H](O)[C@@H](NC(=O)c4ccccc4)c4ccccc4)C(C)=C1C3(C)C)[C@]1(OC(C)=O)CO[C@@H]1C[C@@H]2O [PACLITAXEL]; test: as above; details: exposure time: 5 days; dose range 0.5-1000 nM
Outline: as §1

CAMPTOTHECIN = compound: CC[C@@]1(O)C(=O)OCc2c1cc1n(c2=O)Cc2cc3ccccc3nc2-1 [CAMPTOTHECIN]; test: as above; details: exposure time: 5 days; dose range 0.5-1000 nM
Outline: as §1

OSI-906 = compound: C[C@]1(O)C[C@@H](c2nc(-c3ccc4ccc(-c5ccccc5)nc4c3)c3c(N)nccn32)C1 [OSI-906]; test: as above; details: exposure time: 5 days; dose range 0.5-1000 nM
Outline: as §1

CELECOXIB = compound: Cc1ccc(-c2cc(C(F)(F)F)nn2-c2ccc(S(N)(=O)=O)cc2)cc1 [CELECOXIB]; test: as above; details: exposure time: 5 days; dose range 0.5-1000 nM
Outline: as §1

GEFITINIB = compound: COc1cc2ncnc(Nc3ccc(F)c(Cl)c3)c2cc1OCCCN1CCOCC1 [GEFITINIB]; test: as above; details: exposure time: 5 days; dose range 0.5-1000 nM
Outline: as §1

YM155 = compound: COCC[n+]1c2c(n(Cc3cnccn3)c1C)C(=O)c1ccccc1C2=O [YM155]; test: as above; details: exposure time: 5 days; dose range 0.5-1000 nM
Outline: as §1

CARBOPLATIN [4] = compound: T1, CARBOPLATIN; test: as above; details: exposure time: 5 days; dose range 0.5-1000 nM
Outline: as §1

Test System	surviving fraction (CARBOPLATIN [1]; 0.5 nM)	surviving fraction (CARBOPLATIN [1]; 1 nM)	surviving fraction (CARBOPLATIN [1]; 5 nM)	surviving fraction (CARBOPLATIN [1]; 10 nM)	surviving fraction (CARBOPLATIN [1]; 50 nM)	surviving fraction (CARBOPLATIN [1]; 100 nM)	surviving fraction (CARBOPLATIN [1]; 500 nM)	surviving fraction (CARBOPLATIN [1]; 1000 nM)	area under dose-response curve [2]	area under dose-response curve [3]	area under dose-response curve (PACLITAXEL)	area under dose-response curve (CAMPTOTHECIN)	area under dose-response curve (OSI-906)	area under dose-response curve (CELECOXIB)	area under dose-response curve (GEFITINIB)	area under dose-response curve (YM155)	area under dose-response curve (CARBOPLATIN [4])
HCC202 BREAST	1.19 ± 0.33	1.05 ± 0.058	1.31 ± 0.09	1.07 ± 0.36	1.02 ± 0.23	1.14 ± 0.018	1.27 ± 0.4	1.34 ± 0.34	3.11	4.5	1.37	–	–	–	–	–	–
SUM159 BREAST	1.12 ± 0.024	1.1 ± 0.02	1.1 ± 0.016	1.09 ± 0.024	1.09 ± 0.022	1.09 ± 0.015	1.11 ± 0.022	1.092 ± 0.01	3.03	2.79	1.29	1.29	3.15	3.58	3.52	1.25	–
SNU475 LIVER	1.04 ± 0.088	1.06 ± 0.038	1.07 ± 0.041	1.05 ± 0.037	1.02 ± 0.075	1.05 ± 0.043	1.01 ± 0.04	1.04 ± 0.036	3.4	2.85	0.893	1.18	3.01	3.49	–	1.91	3.44
HCC78 LUNG	1.04 ± 0.061	0.884 ± 0.23	1.2 ± 0.18	0.951 ± 0.25	1 ± 0.22	1.12 ± 0.2	0.973 ± 0.037	0.954 ± 0.18	–	2.33	0.585	0.338	2.75	3.06	–	0.851	3.35
SJSA1 BONE	1.68 ± 0.11	1.73 ± 0.089	1.56 ± 0.12	1.64 ± 0.17	0.869 ± 0.07	1.376 ± 0.0032	1.54 ± 0.088	1.16 ± 0.17	3.43	3.02	1.01	3.83	–	5.36	–	5.19	4.73
SG32 HEADNECK	1.12 ± 0.12	1.07 ± 0.17	1.15 ± 0.17	1.17 ± 0.051	1.27 ± 0.12	1.38 ± 0.35	1.16 ± 0.2	1.04 ± 0.17	–	2.57	1.08	0.888	2.28	4.18	4.01	0.928	3.86
CADOES1 SOFT TISSUE	0.992 ± 0.13	0.966 ± 0.11	0.934 ± 0.052	0.987 ± 0.15	0.96 ± 0.11	0.962 ± 0.078	1.1 ± 0.11	1.02 ± 0.11	2.79	2.12	1.87	0.642	3.12	2.95	3.02	3.1	–
NOS1 BONE	1.22 ± 0.2	1.08 ± 0.076	1.31 ± 0.13	1.25 ± 0.1	1.22 ± 0.14	1.23 ± 0.1	1.11 ± 0.051	0.955 ± 0.073	3.53	–	1.13	1.96	2.83	3.88	–	1.08	3.95
SIHA CERVIX	1.14 ± 0.065	1.18 ± 0.038	1.13 ± 0.088	1.21 ± 0.094	1.16 ± 0.1	1.21 ± 0.044	1.08 ± 0.048	1.14 ± 0.02	–	2.88	0.974	1.73	3.17	3.52	3.44	1.48	3.82
MG63 BONE	1.08 ± 0.043	1 ± 0.023	1.08 ± 0.031	1.07 ± 0.045	1.08 ± 0.034	1.076 ± 0.004	1.05 ± 0.055	1.01 ± 0.032	3.25	2.52	0.809	0.972	3.11	3.57	3.47	1.43	–
RDES SOFT TISSUE	1.23 ± 0.035	0.987 ± 0.091	1.14 ± 0.1	1.11 ± 0.083	1.09 ± 0.15	1.23 ± 0.13	1.08 ± 0.099	1.15 ± 0.14	–	2.44	1.03	0.518	2.76	3.85	3.69	1.4	3.72
MFM223 BREAST	1.22 ± 0.071	1.22 ± 0.18	1.22 ± 0.18	1.15 ± 0.18	1.16 ± 0.021	1.12 ± 0.094	1.11 ± 0.077	1.06 ± 0.11	–	2.67	0.825	1.92	2.94	–	3.88	0.996	3.74
CHLA90 AUTONOMIC GANGLIA	0.925 ± 0.057	0.943 ± 0.072	0.923 ± 0.058	0.917 ± 0.045	1.14 ± 0.11	1.11 ± 0.098	1.09 ± 0.097	1.13 ± 0.14	3.14	2.51	1.13	1.21	2.73	3.34	2.9	1.31	–
SCC003 HEADNECK	1.1 ± 0.075	1.06 ± 0.04	1.1 ± 0.039	1.04 ± 0.025	1.14 ± 0.027	1.03 ± 0.035	1.13 ± 0.17	0.995 ± 0.051	3.56	2.69	1.13	1.77	3.08	3.59	2.89	1.38	–
HT1080 SOFT TISSUE	1.07 ± 0.024	1.1 ± 0.011	1.09 ± 0.051	1.09 ± 0.013	1.03 ± 0.023	1.04 ± 0.044	1.03 ± 0.058	1.06 ± 0.062	3.28	2.39	0.5	1.51	3.17	–	–	1.04	3.51
SG28 HEADNECK	1.23 ± 0.042	1.1	1.07 ± 0.065	0.97 ± 0.0014	1.024 ± 0.0035	1 ± 0.084	1.11 ± 0.034	1.18 ± 0.19	3.43	2.96	2.04	–	–	–	–	–	–
HMLE3 BREAST	1.07 ± 0.033	1.1 ± 0.053	1.11 ± 0.06	1.18 ± 0.092	1.06 ± 0.042	1.05 ± 0.11	1.02 ± 0.057	1.08 ± 0.13	3.23	2.59	0.754	0.888	2.79	3.53	–	1.02	–
